Assay results from patent US12251366B1, “Sulforaphane-cysteine for wound healing in diabetic subjects” (KUWAIT UNIVERSITY, priority 2024, dated 2025).

Test system: TNF-α
Test: Cytokine ELISA, LPS-stimulated peritoneal macrophages (TNF-α)
Format: cell-based, mouse
Details: LPS-stimulated macrophages, mouse model of type 2 diabetes
From the text: This was exemplified in the current study by the ability of SFN-CYS to inhibit lipopolysaccharide (LPS)-induced peritoneal macrophages and bone marrow-derived macrophages to produce tumor necrosis factor-α (TNF-α) and interlukin-6 (IL-6). TNF-α and IL-6 are two of the major inflammatory mediators that contribute to the pathogenesis of low-grade inflammation; a phenomenon which is commonly associated with the diabetic state. […] Pre-treatment with SFN-Cys inhibited the expression of LPS-induced TNF-α and IL-6 protein at a therapeutic dose of 1.5 μM (FIGS. 1A and 1B).
Thioglycollate-elicited mouse peritoneal macrophages were prepared from C57BL (8-10 weeks old) and cultured in RPMI 1640 with 10% (v/v) FCS Bone marrow-derived macrophages were generated in RPMI medium containing M-CSF (10 ng/mL) according to previously published procedure. For cytokine ELISA assay, cells were seeded at 5×10^5 in 12-well plates, whereas for mRNA expression, the cells were seeded at […]. LPS and used at a dose of 100 ng/mL. Similarly. SFN-Cys was used at a concentration of 1.5 umol/L.
For cytokine ELISA, supernatants from cultured macrophages were collected in response to treatment with SFN and SFN-Cys for 6 h. The total TNF-α and TL-6 were measured by enzyme-linked immunosorbent assay (ELISA) using kits (R&D system, USA) according to the manufacturer's protocols.

With `C[S+]([O-])CCCCN=C=S` (stereo not shown) [SFN, Sulforaphane] the “anti-inflammatory activity (overall, SFN-Cys compared with SFN)” value was “exhibited anti-inflammatory and antioxidant activities”.
